Results taken from patent US6667387B1, “HCV core peptides” (priority 1992, dated 2003).
Ends that are not written are not given here. * marks the point of attachment. Biotin = O=C1N[C@H]2[C@H](CS[C@H]2CCCCC(=O)*)N1

How the values were obtained:
Format in all cases: binding, human
[1] = system: antibodies in antisera from HIV-1 infected persons; assay: ELISA with HIV-1 antibody-positive sera (biotinylated peptides on streptavidin- or avidin-coated plates, unbiotinylated peptides coated directly)
Protocol: (§1) Where peptides were to be coated directly, stock solutions of the peptides were diluted in sodium carbonate buffer, pH 9.6 and used to coat polystyrene microtiter plates at a peptide concentration of 2 to 5 micrograms per milliliter for 1 hour at 37° C.
(§2) In cases where biotinylated peptides were to be evaluated, plates were first coated with streptavidin in sodium carbonate buffer, pH 9.6 at a concentration of 3 micrograms per milliliter for 1 hour at 37° C. The plates were then washed to remove excess, unbound protein. A working solution of the biotinylated peptide at 1 microgram per milliliter in sodium carbonate buffer was then added to the wells of the microtiter plate and incubated for 1 hours at 37° C.
(§3) Once the plates had been coated with antigen, any remaining free binding sites on the plastic were blocked with casein. After washing, a dilution of the appropriate antisera, usually 1:100, was added to the wells of the plates and incubated for 1 hour at 37° C.
(§4) After washing to remove unbound material, specific antibody binding was detected by incubating the plates with goat anti-human immunoglobulin antibodies conjugated to the enzyme horseradish peroxidase. Following removal of unbound conjugate by washing, a solution containing H2O2 and 3,3′,5,5′-tetramethylbenzidine was added.
(§5) Reactions were stopped after a suitable interval by addition of sulfuric acid. […] Absorbance measurements were made at a wavelength of 450 nanometers and all data are expressed as an optical density value at this wavelength.
Experiments were performed to evaluate antibody recognition of short, 10 amino acid-long, N-acetylated peptides corresponding to other contained within the transmembrane proteins of HIV-1 and HIV-2. […] The peptides used for the comparison were as follows:
Antibody binding to these peptides was compared to antibody binding to the unibiotinylated peptides which were coated directly onto microtiter plates.
In order to evaluate antibody recognition of these two peptides, the peptides were bound individually to streptavidin-coated microtiter plates and tested using a panel of antisera from HIV-1 seropositive donors.
(§6) To determine how well biotinylated peptides would function in a mixture when bound to streptavidin- or avidin-coated plates, two mixtures were made of the N-terminally biotinylated versions of the HIV-1 peptides TM-HIV-1 (hereabove referred to as 1a.1) and V3-nm (hereabove referred to as 1b.4), the HIV-2 peptide TM-HIV-2 (hereabove referred to as 2a), and the hepatitis C virus peptides II, IX, and XVIII. Mixture A contained each of the six biotinylated peptides at a concentration of 1 microgram per milliliter (6 micrograms per milliliter peptide, total) while in mixture B, each peptide was present at a concentration of 0.1 microgram per milliliter (0.6 microgram per milliliter peptide, total). The individual peptides were coated at a concentration of 1 microgram per milliliter. For purposes of comparison, mixtures A and B were also coated directly onto the wells of a microtiter plate. Samples from HIV-1, HIV-2, and HCV-seropositive donors were tested and compared to sera from seronegative blood donors. A cut-off absorbance value of 0.250 was used to determine whether a reaction was positive or negative. Absorbance values equal or greater than 0.250 were considered positive while absorbance values below this value were considered negative.
A spacer consisting of two glycine residues was added to the amino terminus.

[2] = system: antibodies in antisera from HIV-2 infected persons; assay: ELISA with HIV-2 antibody-positive sera (biotinylated peptides on streptavidin- or avidin-coated plates, unbiotinylated peptides coated directly)
Protocol: as §1, §2, §3, §4, §5
The biotinylated peptides were loaded onto microtiter plates which had been coated with streptavidin. Antibody binding to these peptides was compared to antibody binding to the unibiotinylated peptides which were coated directly onto microtiter plates. It is evident that the biotinylated peptides from the HIV-1 or HIV-2 transmembrane proteins bound to streptavidin are recognized very well by antisera from HIV-1 or HIV-2 infected persons respectively. This is in contrast to the unbiotinylated versions of these peptides coated directly onto the polystyrene plates.
as §6
Two glycine residues were added at the N-terminus of each peptide to serve as a spacer and a biotin was coupled to the α-amino group of the resulting N-terminal glycine. The peptides were bound to streptavidin and coated in the wells of microwell plates. HIV-2 antibody-positive sera were used to evaluate these two peptides in an ELISA.

[3] = ELISA with seronegative / negative control sera (specificity)
In short: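 Specificity readout is OD at 450 nm (HRP goat anti-human Ig, TMB/H2O2, sulfuric acid stop), with ≥0.250 counted positive. Seronegative donor sera (typically 1:100, 1 h, 37° C) were applied to casein-blocked wells coated with peptide directly or via streptavidin capture of biotinylated peptide.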

[4] = system: antibodies to HTLV-I and HTLV-II (serum panel PRP203); assay: Line immunoassay (LIA) with biotinylated HTLV-I and HTLV-II peptides; conditions: sample nr. 12 of panel PRP203
From the text: A number of these peptides were used to prepare LIA strips for the detection of antibodies of HTLV. Several of the peptides, such as I-p19 and I-gp46-4, which are derived from regions of the HTLV-I p19 gag protein and envelope glycoprotein, respectively, are expected to be recognized by antibodies produced as a result of both HTLV-I and HTLV-II infection since these sequences are highly homologous in the two viruses. Others, such as I-gp46-3, I-gp46-6 for HTLV-I, and II-gp52-1, II-gp52-2 and II-gp52-3 for HTLV-II may be useful for detection of antibodies as well as discrimination. Since there is some homology between the HTLV-I and HTLV-II sequences, cross-reactions are to be expected. Nevertheless, the intensities of the reactions to the various peptides should reveal the identity of the virus to which the antibodies were produced.
The LIA strips were evaluated using a commercially available serum panel (Boston Biomedia Inc., mixed titer panel, PRP203). The test results are in complete agreement with the analysis provided by distributor. […] This sample could not be differentiated using these peptides, nor could this sample be differentiated by any other test used by the distributor of the serum panel. Sample nr. […] In an additional experiment, an ELISA was performed using all 10 of the biotinylated HTLV-I and HTLV-II peptides. […]

[5] = system: antibodies in sera from HCV-seropositive donors; assay: ELISA with HCV antibody-positive sera (biotinylated peptides on streptavidin- or avidin-coated plates, unbiotinylated peptides coated directly); conditions: Table 8, Avidin
In short: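 Read-out is OD at 450 nm after HRP goat anti-human Ig and TMB development, following 1 h at 37° C. with seropositive or negative sera diluted 1:100 (or 20-fold). Antigen was either unbiotinylated peptide adsorbed on plastic (pH 9.6 carbonate, 2–5 or 3 μg/ml) or biotinylated peptide at 1 μg/ml captured on streptavidin-coated wells, with casein blocking.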

[6] = Table 1, serum 0724, HIV-1 positive
[7] = Table 1, serum PL, HIV-1 positive
[8] = Table 1, serum VE, HIV-1 positive
[9] = Table 1, serum YEMO, HIV-1 positive
[10] = Table 1, serum mm, HIV-1 positive
[11] = Table 1, serum 53-3, HIV-2 positive
[12] = Table 1, serum 1400, HIV-2 positive
[13] = Table 1, serum AG, HIV-2 positive
[14] = Table 1, serum 180, seronegative donor
[15] = Table 1, serum 194, seronegative donor
[16] = Table 1, serum 195, seronegative donor
[17] = Table 1, serum 204, seronegative donor

Row | Substance | optical density (450 nm) [1, 6] | optical density (450 nm) [1, 7] | optical density (450 nm) [1, 8] | optical density (450 nm) [1, 9] | optical density (450 nm) [1, 10] | optical density (450 nm) [2, 11] | optical density (450 nm) [2, 12] | optical density (450 nm) [2, 13] | optical density (450 nm) [3, 14] | optical density (450 nm) [3, 15] | optical density (450 nm) [3, 16] | optical density (450 nm) [3, 17] | also measured
1 | Ac-Ile-Trp-Gly-Cys-Ser-Gly-Lys-Leu-Ile-Cys-NH2 (Ac-IWGCSGKLIC-NH2; cysteine pairing not given here) [TM-HIV-1, unbiotinylated N-acetylated decamer of the HIV-1 transmembrane protein] | 0.174 | 0.000 | 0.052 | 0.162 | 0.051 | 0.000 | 0.000 | 0.000 | 0.000 | 0.000 | 0.000 | 0.000 | –
2 | Ac-Ser-Trp-Gly-Cys-Ala-Phe-Arg-Gln-Val-Cys-NH2 (Ac-SWGCAFRQVC-NH2; cysteine pairing not given here) [TM-HIV-2, unbiotinylated N-acetylated decamer of the HIV-2 transmembrane protein] | 0.000 | 0.000 | 0.000 | 0.000 | 0.000 | 0.000 | 0.000 | 0.000 | 0.000 | 0.000 | 0.000 | 0.000 | –
3 | Bio Gly Gly Pro Pro Pro Pro Ser Ser Pro Thr His Asp Pro Pro Asp Ser Asp Pro Gln Ile Pro Pro Pro Tyr Val Glu Pro Thr Ala Pro Gln Val Leu (Biotin-GGPPPPSSPTHDPPDSDPQIPPPYVEPTAPQVL) [I-p19] | – | – | – | – | – | – | – | – | – | – | – | – | LIA reaction [4]: positive reaction
4 | Bio-Gly-Gly-Gly-Ser-Trp-Gly-Cys-Ala-Phe-Arg-Gln-Val-Cys-NH2 (Biotin-GGGSWGCAFRQVC-NH2; cysteine pairing not given here) [TM-HIV-2 Bio] | 0.000 | 0.000 | 0.000 | 0.000 | 0.000 | 2.365 | 1.982 | 2.323 | 0.000 | 0.000 | 0.000 | 0.000 | optical density (450 nm) ([1]; Table 8, serum 3990 (HIV-1), Avidin): 0.054; optical density (450 nm) ([1]; Table 8, serum DV (HIV-1), Avidin): 0.048; optical density (450 nm) ([1]; Table 8, serum PL (HIV-1), Avidin): 0.051; optical density (450 nm) ([1]; Table 8, serum YS (HIV-1), Avidin): 0.046; optical density (450 nm) ([2]; Table 8, serum 1400 (HIV-2), Avidin): 1.781; optical density (450 nm) ([2]; Table 8, serum AG (HIV-2), Avidin): 2.065; optical density (450 nm) ([5]; serum 8243 (HCV)): 0.109; optical density (450 nm) ([5]; serum 8247 (HCV)): 0.048; optical density (450 nm) ([5]; serum 8248 (HCV)): 0.046; optical density (450 nm) ([5]; serum 8269 (HCV)): 0.049; optical density (450 nm) ([5]; serum 8273 (HCV)): 0.050; optical density (450 nm) ([5]; serum 8278 (HCV)): 0.045; optical density (450 nm) ([5]; serum 8285 (HCV)): 0.163; optical density (450 nm) ([5]; serum 8290 (HCV)): 0.047; optical density (450 nm) ([5]; serum 8291 (HCV)): 0.050; optical density (450 nm) ([3]; Table 8, serum 1782 (blood donor), Avidin): 0.057; optical density (450 nm) ([3]; Table 8, serum 1784 (blood donor), Avidin): 0.046; optical density (450 nm) ([3]; Table 8, serum 1785 (blood donor), Avidin): 0.047; optical density (450 nm) ([3]; Table 8, serum 1794 (blood donor), Avidin): 0.090
